Data as given in PubChem BioAssay AID248 (DTP/NCI, 2004).
Values joined by “and” are separate entries in the source; they are usually repeats but may differ in a detail not shown here. Equal values may be shown once. Toxic doses and inconclusive results are not listed.

Tested on: L1210 leukemia ip in BDF1 mice, survival T/C
Assay: NCI In Vivo Anticancer Drug Screen. Data for tumor model L1210 Leukemia (intraperitoneal) in B6D2F1 (BDF1) mice
Details: endpoint: mean survival time, higher = longer survival
Procedure, shortened: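 Read-out is survival time, reported as the treated-group measurement over the vehicle-control measurement.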

[1] = dose: 100.0 mg/kg/injection, schedule: Q01DX001 (ip), vehicle: saline with Tween-80

## CCN=C(N)Nc1ccc(NC(=O)c2ccc(C(=O)Nc3ccc(NC(N)=NCC)cc3)cc2)cc1
dose: 0.12 mg/kg/injection, schedule: Q01DX Z (ip), vehicle: carboxymethylcellulose (CMC)
  T/C: 101 % of control
dose: 0.25 mg/kg/injection, schedule: Q01DX Z (ip), vehicle: carboxymethylcellulose (CMC)
  T/C: 105 % of control
dose: 1.0 mg/kg/injection, schedule: Q01DX Z (ip), vehicle: carboxymethylcellulose (CMC)
  T/C: 154 % of control
dose: 2.0 mg/kg/injection, schedule: Q01DX Z (ip), vehicle: carboxymethylcellulose (CMC)
  T/C: 227 % of control
dose: 3.0 mg/kg/injection, schedule: Q01DX Z (ip), vehicle: carboxymethylcellulose (CMC)
  T/C: 261 % of control
dose: 4.0 mg/kg/injection, schedule: Q01DX Z (ip), vehicle: carboxymethylcellulose (CMC)
  T/C: 264 % of control
dose: 6.0 mg/kg/injection, schedule: Q01DX Z (ip), vehicle: carboxymethylcellulose (CMC)
  T/C: 198 % of control
dose: 8.0 mg/kg/injection, schedule: Q01DX Z (ip), vehicle: carboxymethylcellulose (CMC)
  T/C: 155 % of control
dose: 11.0 mg/kg/injection, schedule: Q01DX001 (ip), vehicle: carboxymethylcellulose (CMC)
  T/C: 122 % of control
dose: 11.0 mg/kg/injection, schedule: Q01DX001 (ip), vehicle: other
  T/C: 122 % of control
dose: 16.0 mg/kg/injection, schedule: Q01DX Z (ip), vehicle: carboxymethylcellulose (CMC)
  T/C: 121 % of control
dose: 21.0 mg/kg/injection, schedule: Q01DX001 (ip), vehicle: carboxymethylcellulose (CMC)
  T/C: 151 % of control
dose: 21.0 mg/kg/injection, schedule: Q01DX001 (ip), vehicle: other
  T/C: 155 % of control
dose: 32.0 mg/kg/injection, schedule: Q01DX001 (ip), vehicle: carboxymethylcellulose (CMC)
  T/C: 163 % of control
dose: 32.0 mg/kg/injection, schedule: Q01DX001 (ip), vehicle: other
  T/C: 164 % of control
dose: 32.0 mg/kg/injection, schedule: Q01DX Z (ip), vehicle: carboxymethylcellulose (CMC)
  T/C: 91 % of control
dose: 48.0 mg/kg/injection, schedule: Q01DX001 (ip), vehicle: carboxymethylcellulose (CMC)
  T/C: 209 % of control
dose: 48.0 mg/kg/injection, schedule: Q01DX001 (ip), vehicle: other
  T/C: 204 % of control
dose: 50.0 mg/kg/injection, schedule: Q01DX Z (oral), vehicle: carboxymethylcellulose (CMC)
  T/C: 118 % of control
dose: 100.0 mg/kg/injection, schedule: Q01DX Z (oral), vehicle: carboxymethylcellulose (CMC)
  T/C: 104 % of control
dose: 200.0 mg/kg/injection, schedule: Q01DX Z (oral), vehicle: carboxymethylcellulose (CMC)
  T/C: 96 % of control
dose: 400.0 mg/kg/injection, schedule: Q01DX Z (oral), vehicle: carboxymethylcellulose (CMC)
  T/C: 118 % of control

## COC1(OC)C2(Cl)C3C(=O)C4C5C(=O)C3C1(Cl)C5(Cl)C42Cl (stereo unspecified)
dose: 100.0 mg/kg/injection, schedule: Q01DX001 (ip), vehicle: saline
  T/C: 105 % of control
dose: 200.0 mg/kg/injection, schedule: Q01DX001 (ip), vehicle: saline
  T/C: 94 % of control
dose: 400.0 mg/kg/injection, schedule: Q01DX001 (ip), vehicle: saline
  T/C: 89 % of control

## CC(C)=CCC/C(C)=C/Cn1cc([N+](=O)[O-])ccc1=O
[1]
  T/C: 106 % of control
dose: 100.0 mg/kg/injection, schedule: Q04DX003 (ip), vehicle: saline with Tween-80
  T/C: 111 % of control
dose: 200.0 mg/kg/injection, schedule: Q01DX001 (ip), vehicle: saline with Tween-80
  T/C: 101 % of control
dose: 200.0 mg/kg/injection, schedule: Q04DX003 (ip), vehicle: saline with Tween-80
  T/C: 111 % of control
dose: 400.0 mg/kg/injection, schedule: Q01DX001 (ip), vehicle: saline with Tween-80
  T/C: 98 % of control
dose: 400.0 mg/kg/injection, schedule: Q04DX003 (ip), vehicle: saline with Tween-80
  T/C: 102 % of control

## CCCCC(C(=O)OCC)C(CCC1CCCCC1)(C(=O)OCC)C(=O)OCC (stereo unspecified)
dose: 100.0 mg/kg/injection, schedule: Q01DX009 (ip), vehicle: Klucel (hydroxypropylcellulose) (HPC)
  T/C: 95 % of control
dose: 100.0 mg/kg/injection, schedule: Q04DX003 (ip), vehicle: Klucel (hydroxypropylcellulose) (HPC)
  T/C: 96 % of control
dose: 200.0 mg/kg/injection, schedule: Q01DX009 (ip), vehicle: Klucel (hydroxypropylcellulose) (HPC)
  T/C: 110 % of control
dose: 200.0 mg/kg/injection, schedule: Q04DX003 (ip), vehicle: Klucel (hydroxypropylcellulose) (HPC)
  T/C: 106 % of control
dose: 400.0 mg/kg/injection, schedule: Q01DX009 (ip), vehicle: Klucel (hydroxypropylcellulose) (HPC)
  T/C: 105 % of control
dose: 400.0 mg/kg/injection, schedule: Q04DX003 (ip), vehicle: Klucel (hydroxypropylcellulose) (HPC)
  T/C: 95 % of control

## O/N=C1\CN2CCC1CC2
dose: 18.75 mg/kg/injection, schedule: Q04DX003 (ip), vehicle: saline
  T/C: 104 % of control
dose: 25.0 mg/kg/injection, schedule: Q01DX001 (ip), vehicle: saline with Tween-80
  T/C: 97 % of control
dose: 37.5 mg/kg/injection, schedule: Q04DX003 (ip), vehicle: saline
  T/C: 98 % of control
dose: 50.0 mg/kg/injection, schedule: Q01DX001 (ip), vehicle: saline with Tween-80
  T/C: 97 % of control
dose: 75.0 mg/kg/injection, schedule: Q04DX003 (ip), vehicle: saline
  T/C: 102 % of control
[1]
  T/C: 102 % of control

## O=C(O)/C=C\c1c[nH]c2nccnc12
dose: 25.0 mg/kg/injection, schedule: Q01DX009 (ip), vehicle: saline
  T/C: 101 % of control
dose: 25.0 mg/kg/injection, schedule: Q04DX003 (ip), vehicle: saline
  T/C: 117 % of control
dose: 50.0 mg/kg/injection, schedule: Q01DX009 (ip), vehicle: saline
  T/C: 88 % of control
dose: 50.0 mg/kg/injection, schedule: Q04DX003 (ip), vehicle: saline
  T/C: 115 % of control
dose: 100.0 mg/kg/injection, schedule: Q04DX003 (ip), vehicle: saline
  T/C: 103 % of control and 106 % of control

## NCCc1cc(O)c(O)c(S(=O)(=O)c2ccccc2)c1
dose: 87.5 mg/kg/injection, schedule: Q01DX009 (ip), vehicle: saline
  T/C: 96 % of control
dose: 175.0 mg/kg/injection, schedule: Q01DX009 (ip), vehicle: saline
  T/C: 94 % of control
dose: 350.0 mg/kg/injection, schedule: Q01DX009 (ip), vehicle: saline
  T/C: 115 % of control
